In US11547712B2, “Kinase inhibitor compounds and compositions and methods of use” (ICAHN SCHOOL OF MEDICINE AT MOUNT SINAI, priority 2017, dated 2023):
Like-named read-outs stand apart in the source and are kept apart here.

Legend:
DYRK1A [1] = target: T1, DYRK1A (Homo sapiens (Human), UniProt Q13627); test: KINOMEscan Assay (DiscoverX), DYRK1A binding; conditions: for Kd: eleven serial three fold dilutions (in duplicate); for remaining binding at 30 µM: read-out: Screening (30 μM) DiscoverX: primary screen binding interactions, % DMSO Ctrl
Procedure: (§1) DYRK1A Binding Assays. Compounds were tested for DYRK1A binding activity at two different commercial kinase profiling services, Life Technologies and DiscoverX. […] Compounds were screened for DYRK1A activity at a single concentration of 30 μM in duplicates.

DYRK1A [2] = target: T1, DYRK1A; test: FRET-based LanthaScreen Eu Kinase Binding Assay (Life Technologies); conditions: read-out: Screening (30 μM) LifeTech: % DYRK1A inhibition at 30 μM
Procedure: as §1

Row | Molecule | Kd (DYRK1A [1]) [nM] | remaining binding at 30 µM (DYRK1A [1]) [%] | inhibition at 30 µM (DYRK1A [2]) [%] | inhibition at 30 µM (DYRK1A [2]; 30 μM single concentration) [%]
1 | O=c1[nH]c2ccc(C3=NN=C(NCc4ccccc4C(F)(F)F)SC3)cc2[nH]1 [Compound 3-20, N-(2-trifluoromethylbenzyl)-5-(benzo[d]imidazol-2(3H)-one)-6H-1,3,4-thiadiazin-2-amine] | 7700 | 38 | 24 | 
2 | O=c1[nH]c2ccc(C3=NN=C(Nc4ccccc4)SC3)cc2[nH]1 [Compound 3-28, N-phenyl-5-(benzo[d]imidazol-2(3H)-one)-6H-1,3,4-thiadiazin-2-amine] | 19000 | 41 | 39 | 
3 | N#Cc1cccc(NC2=NN=C(c3ccc4[nH]c(=O)[nH]c4c3)CS2)c1 [Compound 3-31, N-(3-cyanophenyl)-5-(benzo[d]imidazol-2(3H)-one)-6H-1,3,4-thiadiazin-2-amine] | 3800 |  |  | 
4 | CCCCNC1=NN=C(c2ccc3[nH]c(=O)[nH]c3c2)CS1 [Compound 3-5, N-butyl-5-(benzo[d]imidazol-2(3H)-one)-6H-1,3,4-thiadiazin-2-amine] |  | 0 |  | 24
5 | NC(=O)c1cccc(CNC2=NN=C(c3ccc4[nH]c(=O)[nH]c4c3)CS2)c1 [Compound 4-2, N-(3-carboxyaminobenzyl)-5-(benzo[d]imidazol-2(3H)-one)-6H-1,3,4-thiadiazin-2-amine] | 440 |  |  | 
6 | CC(NC1=NN=C(c2ccc3[nH]c(=O)[nH]c3c2)CS1)c1ccc(F)cc1 (centres unmarked) [Compound 3-26, N-(1-(4-fluorophenyl)ethyl)-5-(benzo[d]imidazol-2(3H)-one)-6H-1,3,4-thiadiazin-2-amine] | 2300 |  |  | 
7 | O=c1[nH]c2ccc(C3=NN=C(NCc4cccc(F)c4)SC3)cc2[nH]1 [Compound 3-16, N-(3-fluorobenzyl)-5-(benzo[d]imidazol-2(3H)-one)-6H-1,3,4-thiadiazin-2-amine] | 900 |  |  | 
8 | N-(3-phenylpropyl)-5-(benzo[d]imidazol-2(3H)-one)-6H-1,3,4-thiadiazin-2-amine [Compound 3-37] | 950 |  |  | 
9 | O=c1[nH]c2ccc(C3=NN=C(NCc4ccc(Cl)cc4)SC3)cc2[nH]1 [Compound 3-12, N-(4-chlorobenzyl)-5-(benzo[d]imidazol-2(3H)-one)-6H-1,3,4-thiadiazin-2-amine] | 185 | 19 | 93 | 
10 | CNC1=NN=C(c2ccc3[nH]c(=O)[nH]c3c2)CS1 [Compound 3-2, N-methyl-5-(benzo[d]imidazol-2(3H)-one)-6H-1,3,4-thiadiazin-2-amine] |  | 0.5 |  | 63
11 | O=c1[nH]c2ccc(C3=NN=C(NCCc4ccccc4)SC3)cc2[nH]1 [Compound 3-34, N-(2-phenylethyl)-5-(benzo[d]imidazol-2(3H)-one)-6H-1,3,4-thiadiazin-2-amine] | 1600 | 0.5 | 61 | 
12 | O=c1[nH]c2ccc(C3=NN=C(NCc4cccc(Cl)c4)SC3)cc2[nH]1 [Compound 3-13, N-(3-chlorobenzyl)-5-(benzo[d]imidazol-2(3H)-one)-6H-1,3,4-thiadiazin-2-amine] | 420 |  |  | 
13 | O=c1[nH]c2ccc(C3=NN=C(NCc4ccc(C(F)(F)F)cc4)SC3)cc2[nH]1 [Compound 3-18, N-(4-trifluoromethylbenzyl)-5-(benzo[d]imidazol-2(3H)-one)-6H-1,3,4-thiadiazin-2-amine] |  | 40 | 53 | 
14 | CCNC1=NN=C(c2ccc3[nH]c(=O)[nH]c3c2)CS1 [Compound 3-3, N-ethyl-5-(benzo[d]imidazol-2(3H)-one)-6H-1,3,4-thiadiazin-2-amine] |  | 0 |  | 69
15 | CCCNC1=NN=C(c2ccc3[nH]c(=O)[nH]c3c2)CS1 [Compound 3-4, N-propyl-5-(benzo[d]imidazol-2(3H)-one)-6H-1,3,4-thiadiazin-2-amine] |  | 2.9 |  | 48
16 | CC(C)NC1=NN=C(c2ccc3[nH]c(=O)[nH]c3c2)CS1 [Compound 3-6, N-isopropyl-5-(benzo[d]imidazol-2(3H)-one)-6H-1,3,4-thiadiazin-2-amine] |  | 2.3 |  | 59
17 | O=c1[nH]c2ccc(C3=NN=C(NCc4cccnc4)SC3)cc2[nH]1 [Compound 3-23, N-(pyridine-3yl)methyl-5-(benzo[d]imidazol-2(3H)-one)-6H-1,3,4-thiadiazin-2-amine] | 860 | 4.2 | 74 | 
18 | O=c1[nH]c2ccc(C3=NN=C(NCc4cccc5ccccc45)SC3)cc2[nH]1 [Compound 3-41, N-(1-naphthylmethyl)-5-(benzo[d]imidazol-2(3H)-one)-6H-1,3,4-thiadiazin-2-amine] | 7300 | 36 | 11 | 
19 | CC(NC1=NN=C(c2ccc3[nH]c(=O)[nH]c3c2)CS1)c1ccccc1 (centres unmarked) [Compound 3-25, N-(1-phenylethyl)-5-(benzo[d]imidazol-2(3H)-one)-6H-1,3,4-thiadiazin-2-amine] |  | 3.7 | 57 | 
20 | O=c1[nH]c2ccc(C3=NN=C(NCc4ccc(F)cc4)SC3)cc2[nH]1 [Compound 3-15, N-(4-fluorobenzyl)-5-(benzo[d]imidazol-2(3H)-one)-6H-1,3,4-thiadiazin-2-amine] |  | 8.9 | 95 | 
21 | O=c1[nH]c2ccc(C3=NN=C(Nc4cccc(C(F)(F)F)c4)SC3)cc2[nH]1 [Compound 3-30, N-(3-trifluoromethylphenyl)-5-(benzo[d]imidazol-2(3H)-one)-6H-1,3,4-thiadiazin-2-amine] | 14000 |  |  | 
22 | N#Cc1cccc(CNC2=NN=C(c3ccc4[nH]c(=O)[nH]c4c3)CS2)c1 [Compound 3-22, N-(3-cyanobenzyl)-5-(benzo[d]imidazol-2(3H)-one)-6H-1,3,4-thiadiazin-2-amine] |  | 12 | 69 | 
23 | O=c1[nH]c2ccc(C3=NN=C(NCc4cccc(C(F)(F)F)c4)SC3)cc2[nH]1 [Compound 3-19, N-(3-trifluoromethylbenzyl)-5-(benzo[d]imidazol-2(3H)-one)-6H-1,3,4-thiadiazin-2-amine] |  | 23 | 20 | 
24 | O=c1[nH]c2ccc(C3=NN=C(NCCc4cccnc4)SC3)cc2[nH]1 [Compound 3-39, N-(2-(pyridine-3-yl)ethyl)-5-(benzo[d]imidazol-2(3H)-one)-6H-1,3,4-thiadiazin-2-amine] | 2200 |  |  | 
25 | O=c1[nH]c2ccc(C3=NN=C(NCc4ccncc4)SC3)cc2[nH]1 [Compound 3-24, N-(pyridine-4yl)methyl-5-(benzo[d]imidazol-2(3H)-one)-6H-1,3,4-thiadiazin-2-amine] | 2200 |  |  | 
26 | O=c1[nH]c2ccc(C3=NN=C(Nc4cccc(F)c4)SC3)cc2[nH]1 [Compound 3-29, N-(3-fluorophenyl)-5-(benzo[d]imidazol-2(3H)-one)-6H-1,3,4-thiadiazin-2-amine] | 7000 |  |  | 
27 | CC(C)(C)NC1=NN=C(c2ccc3[nH]c(=O)[nH]c3c2)CS1 [Compound 3-7, N-t-butyl-5-(benzo[d]imidazol-2(3H)-one)-6H-1,3,4-thiadiazin-2-amine] |  | 0.75 |  | 46
28 | N#Cc1ccc(CNC2=NN=C(c3ccc4[nH]c(=O)[nH]c4c3)CS2)cc1 [Compound 3-21, N-(4-cyanobenzyl)-5-(benzo[d]imidazol-2(3H)-one)-6H-1,3,4-thiadiazin-2-amine] |  | 12 | 47 | 
29 | O=c1[nH]c2ccc(C3=NN=C(NCc4ccccc4Cl)SC3)cc2[nH]1 [Compound 3-14, N-(2-chlorobenzyl)-5-(benzo[d]imidazol-2(3H)-one)-6H-1,3,4-thiadiazin-2-amine] | 840 |  |  | 
30 | O=c1[nH]c2ccc(C3=NN=C(NCCc4ccccn4)SC3)cc2[nH]1 [Compound 3-38, N-(2-(pyridine-1-yl)ethyl)-5-(benzo[d]imidazol-2(3H)-one)-6H-1,3,4-thiadiazin-2-amine] | 1600 | 8.4 | 87 | 
